{"source": "patent US12637661B2", "about": "“Methods of enhancing stem cell differentiation into beta cells” (Vertex Pharmaceuticals Incorporated, priority 2018, dated 2026)", "key": {"[1]": {"tested_on": "stage 5 cells of hESC line (D97, D114, and D241 HUES8)", "assay": "Stage 5 of directed differentiation of hESC line treated with EZH2 inhibitor, HDAC inhibitor or combination", "format": "cell-based, human", "details": "for percentage of pre-SC-β cells (C-PEP+, NKX6-1+): stage 5, FIG. 15; for performance compared with other inhibitors of the same class: stage 5, FIGS. 14 and 15; for proportion of all β cell types: stage 5, FIG. 14", "protocol": "The mRNA expression of NGN3 was investigated in each steps of directed differentiation described herein (FIG. 5), and it was observed that cells expressed NGN3 to initiate SC-β cell differentiation (FIG. 7). The effects of inhibition of histone methylation and deacetylation on SC-β cell differentiation were investigated (FIG. 6). Stage 5 of the directed differentiation as described herein (FIGS. 5-6) in hESC line (D97, D114, and […] HUES8) was treated with an EZH2 inhibitor (DZNep), HDAC inhibitor (KD5170), and a combination thereof (FIG. 6). Candidate inhibitor screening was performed as described in FIG. 18. Inhibition of EZH2 or HDAC in stage 5 (D97 HUES8) increased endocrine cells and SC-β cells (FIG. 8). […] SC-β cells comprised 35.4% at the end of stage 5 with DZNep and KD5170. […] Combined inhibition of EZH2 and HDAC in stage 5 was tested as described in FIG. 17. Combined inhibition of EZH2 and HDAC in stage 5 ([…] HUES8) increased Neorogenin3+ progenitors in stage 5 (FIGS. 12-13). Combined inhibition of EZH2 and HDAC in stage 5 increased NKX6.1+ progenitor cells (FIG. 16)."}, "EZH2": {"biological_target": "EZH2 (Homo sapiens, UniProt Q15910)", "sequence (Q15910 whole entry, species assumed)": "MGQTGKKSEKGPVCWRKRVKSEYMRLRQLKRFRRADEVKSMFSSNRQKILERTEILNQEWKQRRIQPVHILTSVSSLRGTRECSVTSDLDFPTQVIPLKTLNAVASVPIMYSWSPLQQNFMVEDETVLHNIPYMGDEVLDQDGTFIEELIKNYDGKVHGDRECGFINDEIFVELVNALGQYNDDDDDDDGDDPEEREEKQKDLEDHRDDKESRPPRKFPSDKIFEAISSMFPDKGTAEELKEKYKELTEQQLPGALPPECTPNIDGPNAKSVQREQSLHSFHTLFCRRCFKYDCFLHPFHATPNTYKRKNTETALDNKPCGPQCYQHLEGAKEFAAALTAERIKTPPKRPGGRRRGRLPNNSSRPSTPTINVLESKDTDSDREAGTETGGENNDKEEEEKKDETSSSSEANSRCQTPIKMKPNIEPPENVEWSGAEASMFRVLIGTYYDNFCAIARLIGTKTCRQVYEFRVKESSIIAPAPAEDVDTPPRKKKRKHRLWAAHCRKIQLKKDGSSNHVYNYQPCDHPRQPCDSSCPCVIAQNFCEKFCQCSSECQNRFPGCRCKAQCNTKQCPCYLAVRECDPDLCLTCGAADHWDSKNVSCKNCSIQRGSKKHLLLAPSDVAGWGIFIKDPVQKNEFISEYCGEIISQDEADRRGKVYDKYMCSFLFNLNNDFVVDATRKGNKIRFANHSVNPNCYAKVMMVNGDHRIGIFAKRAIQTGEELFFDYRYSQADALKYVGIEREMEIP", "sequence (O75530 whole entry partner, species assumed)": "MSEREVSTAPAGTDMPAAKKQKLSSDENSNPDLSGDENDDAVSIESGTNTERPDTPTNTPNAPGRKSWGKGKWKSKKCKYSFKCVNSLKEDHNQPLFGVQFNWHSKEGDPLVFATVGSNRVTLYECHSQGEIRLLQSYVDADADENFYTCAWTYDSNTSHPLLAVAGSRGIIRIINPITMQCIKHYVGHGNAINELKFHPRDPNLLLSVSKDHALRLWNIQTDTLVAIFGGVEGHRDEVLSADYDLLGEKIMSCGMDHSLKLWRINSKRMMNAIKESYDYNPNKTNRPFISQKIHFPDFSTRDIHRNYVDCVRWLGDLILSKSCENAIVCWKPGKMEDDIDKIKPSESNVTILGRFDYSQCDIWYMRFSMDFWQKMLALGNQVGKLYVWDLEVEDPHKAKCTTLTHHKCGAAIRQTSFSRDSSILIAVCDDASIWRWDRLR", "sequence (Q15022 whole entry partner, species assumed)": "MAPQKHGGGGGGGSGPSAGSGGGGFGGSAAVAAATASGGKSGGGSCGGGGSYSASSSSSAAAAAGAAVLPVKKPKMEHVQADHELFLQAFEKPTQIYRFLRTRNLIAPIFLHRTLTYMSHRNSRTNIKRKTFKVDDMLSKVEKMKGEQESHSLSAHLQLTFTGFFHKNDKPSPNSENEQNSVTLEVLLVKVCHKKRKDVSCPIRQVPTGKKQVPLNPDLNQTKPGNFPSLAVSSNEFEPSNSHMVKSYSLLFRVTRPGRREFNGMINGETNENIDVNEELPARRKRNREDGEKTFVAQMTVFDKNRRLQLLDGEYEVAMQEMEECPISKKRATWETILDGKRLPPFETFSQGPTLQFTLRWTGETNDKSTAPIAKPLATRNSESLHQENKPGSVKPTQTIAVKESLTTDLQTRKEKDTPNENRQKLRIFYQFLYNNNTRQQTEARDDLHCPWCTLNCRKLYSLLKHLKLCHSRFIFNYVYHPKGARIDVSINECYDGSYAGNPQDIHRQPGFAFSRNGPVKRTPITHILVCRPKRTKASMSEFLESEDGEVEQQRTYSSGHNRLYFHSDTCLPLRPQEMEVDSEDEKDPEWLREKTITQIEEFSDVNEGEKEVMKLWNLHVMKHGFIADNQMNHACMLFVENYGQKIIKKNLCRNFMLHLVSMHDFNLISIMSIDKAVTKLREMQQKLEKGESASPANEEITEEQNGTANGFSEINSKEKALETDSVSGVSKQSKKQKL", "details": "cited from earlier work"}}, "data": [{"molecule": "Nc1nccc2c1ncn2[C@@H]1C=C(CO)[C@@H](O)[C@H]1O", "note": "[DZNep, 3-deazaneplanocin A]", "values": [{"measurement": "viability", "setting": "[1]; 1 μM throughout stage 5", "result": "without affecting viability"}, {"measurement": "(VMAT1+INS−) EC population removed", "setting": "[1]; 1 μM throughout stage 5, FIGS. 19-21", "result": "more than half"}, {"measurement": "proportion / differentiation of endocrine cells (CHGA+)", "setting": "[1]; stage 5", "result": "increased"}, {"measurement": "percentage of pre-SC-β cells (C-PEP+, NKX6-1+)", "setting": "[1]", "result": "increased"}, {"measurement": "progenitors cells (NKX6-1+)", "setting": "[1]; stage 5, FIG. 16", "result": "increased"}, {"measurement": "VMAT1+INS− EC population", "setting": "[1]; stage 5, FIG. 19", "result": "specific decrease"}, {"measurement": "NKX6.1-ChromA+ PH cells", "setting": "[1]; stage 5, FIG. 20", "result": "concomitant increase"}, {"measurement": "NKX6.1+INS+ SC-β cell population", "setting": "[1]; stage 5, FIG. 21", "result": "unaffected"}, {"measurement": "performance compared with other inhibitors of the same class", "setting": "[1]", "result": "outperforms other EZH2 inhibitors"}, {"measurement": "selectivity / specificity for EZH2 (in words)", "setting": "EZH2", "result": "may not be specific to EZH2"}]}, {"molecule": "CC[C@H](C)n1cc(C)c2c(C(=O)NCc3c(C)cc(C)[nH]c3=O)cc(-c3ccc(N4CCNCC4)nc3)cc21", "note": "[GSK126]", "values": [{"measurement": "proportion of all β cell types", "setting": "[1]", "result": "did not increase"}]}, {"molecule": "CC(=O)SCC(=O)c1ccc(NS(=O)(=O)c2ccc(OCCCN(C)C)cc2)nc1", "note": "[KD5170]", "values": [{"measurement": "percentage of pre-SC-β cells (C-PEP+, NKX6-1+)", "setting": "[1]", "result": "increased"}, {"measurement": "performance compared with other inhibitors of the same class", "setting": "[1]", "result": "outperforms other HDAC inhibitors"}]}, {"molecule": "O=C(CCCCCCC(=O)Nc1ccccc1)NO", "note": "[SAHA]", "values": [{"measurement": "percentage of pre-SC-β cells (C-PEP+, NKX6-1+)", "setting": "[1]", "result": "did not increase"}]}, {"molecule": "CC(/C=C/C(=O)NO)=C\\[C@@H](C)C(=O)c1ccc(N(C)C)cc1", "note": "[TSA]", "values": [{"measurement": "percentage of pre-SC-β cells (C-PEP+, NKX6-1+)", "setting": "[1]", "result": "did not increase"}]}, {"molecule": "CCCc1cc(C)[nH]c(=O)c1CNC(=O)c1cc(-c2ccc(N3CCN(C(C)C)CC3)nc2)cc2c1cnn2C(C)C", "note": "[UNC1999]", "values": [{"measurement": "proportion of all β cell types", "setting": "[1]", "result": "did not increase"}, {"measurement": "selectivity / specificity for EZH2 (in words)", "setting": "EZH2", "result": "less selective"}]}, {"molecule": "CCCC(=O)[O-].[Na+]", "note": "[sodium butyrate]", "values": [{"measurement": "percentage of pre-SC-β cells (C-PEP+, NKX6-1+)", "setting": "[1]", "result": "did not increase"}]}]}
